In the CheMixHub viscosity set:
± gives the uncertainty stated by the source.

Assay: xn = mol fraction of the nth substance listed

c1ccc2ncccc2c1 + OCC(F)(F)F
viscosity [mPa·s], 101.33 kPa
Details | 298.15 K | 303.15 K | 308.15 K | 313.15 K | 318.15 K | 323.15 K
x1 = 0.16 | 2.34 ± 0.02 | 2.05 ± 0.02 | 1.84 ± 0.02 | 1.62 ± 0.02 | 1.46 ± 0.02 | 1.32 ± 0.01
x1 = 0.34 | 2.91 ± 0.03 | 2.57 ± 0.03 | 2.27 ± 0.02 | 2.04 ± 0.02 | 1.83 ± 0.02 | 1.65 ± 0.02
x1 = 0.54 | 3.14 ± 0.03 | 2.79 ± 0.03 | 2.46 ± 0.03 | 2.21 ± 0.02 | 2 ± 0.02 | 1.82 ± 0.02
x1 = 0.76 | 3.17 ± 0.04 | 2.8 ± 0.03 | 2.49 ± 0.03 | 2.25 ± 0.03 | 2.05 ± 0.02 | 1.87 ± 0.02

COc1ccccc1N + OCCCl
viscosity [mPa·s], 100 kPa
Details | x1 = 0.1041 | x1 = 0.2448 | x1 = 0.3401 | x1 = 0.4623 | x1 = 0.5621 | x1 = 0.6825 | x1 = 0.7612 | x1 = 0.8484 | x1 = 0.9217
303.15 K | 2.83 ± 0.08 | 3.17 ± 0.09 | 3.4 ± 0.09 | 3.69 ± 0.1 | 3.92 ± 0.11 | 4.2 ± 0.11 | 4.38 ± 0.12 | 4.58 ± 0.12 | 4.75 ± 0.13
308.15 K | 2.5 ± 0.07 | 2.83 ± 0.08 | 3.05 ± 0.08 | 3.33 ± 0.09 | 3.55 ± 0.1 | 3.82 ± 0.1 | 4 ± 0.11 | 4.19 ± 0.11 | 4.35 ± 0.12
313.15 K | 2.11 ± 0.06 | 2.44 ± 0.07 | 2.67 ± 0.07 | 2.96 ± 0.08 | 3.19 ± 0.09 | 3.47 ± 0.09 | 3.65 ± 0.1 | 3.85 ± 0.1 | 4.01 ± 0.11
318.15 K | 1.82 ± 0.05 | 2.15 ± 0.06 | 2.38 ± 0.06 | 2.66 ± 0.07 | 2.9 ± 0.08 | 3.17 ± 0.09 | 3.35 ± 0.09 | 3.55 ± 0.1 | 3.71 ± 0.1

COC(C)=O + OCCO
viscosity [mPa·s], 101.33 kPa
Details | x2 = 0.1014 | x2 = 0.1953 | x2 = 0.2981 | x2 = 0.3974 | x2 = 0.5029 | x2 = 0.5992 | x2 = 0.6997 | x2 = 0.799 | x2 = 0.9639
298.15 K | 0.543 ± 0.061 | 0.645 ± 0.072 | 0.829 ± 0.091 | – | 1.85 ± 0.2 | 2.329 ± 0.25 | 3.499 ± 0.38 | 5.578 ± 0.6 | 9.086 ± 0.96
303.15 K | 0.507 ± 0.057 | 0.599 ± 0.067 | 0.756 ± 0.084 | 1.008 ± 0.11 | 1.633 ± 0.18 | 2.026 ± 0.22 | 3.025 ± 0.33 | 4.658 ± 0.5 | 7.673 ± 0.82
308.15 K | 0.473 ± 0.053 | 0.561 ± 0.063 | 0.701 ± 0.078 | 0.921 ± 0.1 | 1.439 ± 0.16 | 1.781 ± 0.19 | 2.643 ± 0.29 | 3.989 ± 0.43 | 6.317 ± 0.68

OCCNCCO + OCCO
298 K, 101.3 kPa
Details | viscosity [mPa·s]
x1 = 0.0049 | 17.27 ± 0.62
x1 = 0.01 | 17.72 ± 0.64
x1 = 0.044 | 20.95 ± 0.75
x1 = 0.07152 | 25.16 ± 0.89
x1 = 0.09514 | 28.03 ± 0.98
x1 = 0.1331 | 37.15 ± 1.3

COc1ccccc1N + OCCc1ccccc1
viscosity [mPa·s], 100 kPa
Details | x1 = 0.0957 | x1 = 0.1852 | x1 = 0.2904 | x1 = 0.3921 | x1 = 0.4911 | x1 = 0.6027 | x1 = 0.7023 | x1 = 0.8005 | x1 = 0.8904
303.15 K | 8.66 ± 0.24 | 8.29 ± 0.23 | 7.87 ± 0.22 | 7.45 ± 0.2 | 7.04 ± 0.19 | 6.58 ± 0.18 | 6.17 ± 0.17 | 5.76 ± 0.16 | 5.38 ± 0.14
308.15 K | 6.95 ± 0.19 | 6.71 ± 0.19 | 6.43 ± 0.18 | 6.16 ± 0.17 | 5.9 ± 0.16 | 5.6 ± 0.15 | 5.33 ± 0.14 | 5.06 ± 0.14 | 4.82 ± 0.13
313.15 K | 5.91 ± 0.16 | 5.75 ± 0.16 | 5.55 ± 0.15 | 5.36 ± 0.15 | 5.18 ± 0.14 | 4.97 ± 0.13 | 4.77 ± 0.13 | 4.58 ± 0.12 | 4.41 ± 0.12
318.15 K | 4.89 ± 0.14 | 4.8 ± 0.13 | 4.69 ± 0.13 | 4.58 ± 0.13 | 4.47 ± 0.12 | 4.35 ± 0.12 | 4.23 ± 0.11 | 4.12 ± 0.11 | 4.02 ± 0.11

OC[C@H](O)C(O)[C@@H](O)CO + OC[C@@H](O)[C@@H](O)CO
101 kPa, x1 = 0.36
Details | viscosity [mPa·s]
293.2 K | 1329000
298.2 K | 611700
303.2 K | 294200
308.1 K | 154700
313.2 K | 79520
318.2 K | 42740
323 K | 23480

OC[C@H](O)C(O)[C@@H](O)CO + OC[C@@H](O)[C@H](O)[C@@H](O)CO
Details | viscosity [mPa·s]
313 K, 101 kPa, x2 = 0.56 | 42740
